Data: ChEMBL document CHEMBL1122027, “N-Aralkyl substitution of 2-amino-5,6- and -6,7-dihydroxy-1,2,3,4-tetrahydronaphthalenes. 2. Derivatives of a hypotensive-positive inotropic agent” (1982)

Key:
[1] = species: Canis familiaris; assay: Cardioselectivity was estimated by normalizing changes in diastolic blood pressure to the 50% levels of contractile force in mongrel dogs; format: functional, Canis lupus familiaris, Artery
[2] = species: Canis familiaris; assay: Inotropic selectivity was assessed by normalizing changes in heart rate to the 50% levels in mongrel dogs; format: functional, Canis lupus familiaris
[3] = species: Canis familiaris; assay: Inotropic selectivity was assessed by normalizing changes in heart rate to the 100% levels in mongrel dogs; format: functional, Canis lupus familiaris
[4] = tested on: Canis familiaris; assay: In vivo dose causing a 50% increase in right ventricular contractile force in mongrel dogs; format: functional, Canis lupus familiaris, Heart right ventricle
[5] = tested on: Canis familiaris; assay: In vivo dose causing a 100% increase in right ventricular contractile force in mongrel dogs; format: functional, Canis lupus familiaris, Heart right ventricle
[6] = species: Canis familiaris; assay: Cardioselectivity was estimated by normalizing changes in diastolic blood pressure to the 100% levels of contractile force in mongrel dogs; format: functional, Canis lupus familiaris, Artery

| SMILES | Delta blood pressure [1] [mmHg] | Delta HR [2] [beats min-1] | Delta HR [3] [beats min-1] | Inotropic potency [4] [nM/kg] | Inotropic potency [5] [nM/kg] | Delta blood pressure [6] [mmHg] |
| --- | --- | --- | --- | --- | --- | --- |
| Oc1cc2c(cc1O)CC(NC1CCc3c(ccc(O)c3O)C1)CC2 (centres undefined) | -61 | 24 | 31 | 210 | 590 | -55 |
| CC(Cc1ccc(O)c(O)c1)NC1CCc2cc(O)c(O)cc2C1 (centres undefined) | -39 | -5 | 4 | 11.4 | 27 | -30 |
| COc1ccc(CC(C)NCCc2ccc(O)c(O)c2)cc1OC (centres undefined) | -24 | 10 | 17 | 490 | 1100 | -31 |
| CC(Cc1ccc(O)c(O)c1)NCCc1ccc(O)c(O)c1 (centres undefined) | -19 | 26 | 39 | 4 | 13 | -34 |
| CC(Cc1ccc(O)cc1)NC1CCc2cc(O)c(O)cc2C1 (centres undefined) | -25 | 23 |  | 680 |  |  |
| Oc1cc2c(cc1O)CC(NC1CCc3cc(O)c(O)cc3C1)CC2 (centres undefined) | -78 | 31 | 62 | 961 | 2650 | 84 |
| CC(Cc1ccc(O)c(O)c1)NC1CCc2cc(O)ccc2C1 (centres undefined) | -46 | 30 | 49 | 25 | 85 | -66 |
